Laboratory results: patent US7833513B2, “Treatment of Alzheimer's Disease” (Rhode Island Hospital, priority 2004, dated 2010)

Key:
Assay type in all cases: in vivo, Long Evans rat
brain gene expression = experiment: ic-STZ ± PPAR agonist: real time quantitative RT-PCR of temporal lobe, hypothalamus, cerebellum; conditions: for ic-STZ associated reductions in IGF-II expression: rat, in vivo; for APP gene expression / Tau gene expression: temporal lobe and hypothalamus; for APP mRNA relative to control and ic-STZ: cerebella
Method: (§1) On the same day, sub-sets of the ic-STZ group were given a single intra-peritoneal injection of vehicle (saline), or a PPAR-α (GW7647; 25 ug/Kg), PPAR-δ (L-165,041; 2 μg/Kg), or PPAR-γ (F-L-Leu; 20 μg/Kg) activator (CalBiochem, Carlsbad, Calif.). […] In addition, at 4 weeks of age, memory and learning were evaluated using a Morris Water Maze (R. W. Hickey, M. Akino, S. Strausbaugh, G. M. De Courten-Myers. Use of the Morris water maze and acoustic startle chamber to evaluate neurologic injury after asphyxial arrest in rats. Pediatr Res 39(1) (1996), 77-84). The procedures and use of rats in these experiments were approved by the Lifespan-Rhode Island Hospital IACUC committee.
Real Time Quantitative RT-PCR: Total RNA isolated from the temporal lobe, hypothalamus, and cerebellum was reverse transcribed using the AMV First Strand cDNA synthesis kit (Roche Diagnostics Corporation, Indianapolis, Ind.) and random oligodeoxynucleotide primers. […] In addition, pathological shifts in cell type associated with ic-STZ-mediated neurodegeneration were detected by measuring the mRNA levels of Hu (neurons), GFAP (astrocytes), myelin-associated glycloprotein (MAG-1; oligodendroglia), and allograft inflammatory factor-1 (AIF-1; microglia) (E. J. Rivera, A. Goldin, N. Fulmer, R. Tavares, J. R. Wands, S. M. de la Monte, J. Alzheimers Dis 8(3) (2005), 247-68). Ribosomal 18S RNA levels measured in parallel reactions were used to calculate the relative abundance of each mRNA transcript (J. E. Yeon, S. Califano, J. Xu, J. R. Wands, S. M. De La Monte. Potential role of PTEN phosphatase in ethanol-impaired survival signaling in the liver. Hepatology 38(3) (2003), 703-14, J. Xu, J. Eun Yeon, H. Chang, G. Tison, G. Jun Chen, J. R. Wands, et al. Ethanol impairs insulin-stimulated neuronal survival in the developing brain: Role of PTEN phosphatase. J Biol Chem (2003)). The gene expression levels were measured by real time quantitative RT-PCR Relative mRNA abundance was determined from the ng ratios of specific mRNA to 18S (J. E. Yeon, S. Califano, J. Xu, J. R. Wands, S. M. De La Monte. Potential role of PTEN phosphatase in ethanol-impaired survival signaling in the liver. Hepatology 38(3) (2003), 703-14, J. Xu, J. Eun Yeon, H. Chang, G. Tison, G. Jun Chen, J. R. Wands, et al. Ethanol impairs insulin-stimulated neuronal survival in the developing brain: Role of PTEN phosphatase. J Biol Chem (2003)).

IGF-II receptor = biological target: T1, IGF-II receptor (Rattus norvegicus, UniProt G3V824); experiment: ic-STZ ± PPAR agonist: equilibrium and saturation binding to IGF-II receptors in the brain; conditions: for BMAX, IGF-II receptor saturation binding in brains of treated rats: [125I]-IGF-II tracer, pooled brain membranes, 4 weeks after ic-STZ ± IP PPAR agonist
T1 construct: from tissue; host or cells: rat brain (temporal lobe)
T1 sequence (G3V824 36-2481): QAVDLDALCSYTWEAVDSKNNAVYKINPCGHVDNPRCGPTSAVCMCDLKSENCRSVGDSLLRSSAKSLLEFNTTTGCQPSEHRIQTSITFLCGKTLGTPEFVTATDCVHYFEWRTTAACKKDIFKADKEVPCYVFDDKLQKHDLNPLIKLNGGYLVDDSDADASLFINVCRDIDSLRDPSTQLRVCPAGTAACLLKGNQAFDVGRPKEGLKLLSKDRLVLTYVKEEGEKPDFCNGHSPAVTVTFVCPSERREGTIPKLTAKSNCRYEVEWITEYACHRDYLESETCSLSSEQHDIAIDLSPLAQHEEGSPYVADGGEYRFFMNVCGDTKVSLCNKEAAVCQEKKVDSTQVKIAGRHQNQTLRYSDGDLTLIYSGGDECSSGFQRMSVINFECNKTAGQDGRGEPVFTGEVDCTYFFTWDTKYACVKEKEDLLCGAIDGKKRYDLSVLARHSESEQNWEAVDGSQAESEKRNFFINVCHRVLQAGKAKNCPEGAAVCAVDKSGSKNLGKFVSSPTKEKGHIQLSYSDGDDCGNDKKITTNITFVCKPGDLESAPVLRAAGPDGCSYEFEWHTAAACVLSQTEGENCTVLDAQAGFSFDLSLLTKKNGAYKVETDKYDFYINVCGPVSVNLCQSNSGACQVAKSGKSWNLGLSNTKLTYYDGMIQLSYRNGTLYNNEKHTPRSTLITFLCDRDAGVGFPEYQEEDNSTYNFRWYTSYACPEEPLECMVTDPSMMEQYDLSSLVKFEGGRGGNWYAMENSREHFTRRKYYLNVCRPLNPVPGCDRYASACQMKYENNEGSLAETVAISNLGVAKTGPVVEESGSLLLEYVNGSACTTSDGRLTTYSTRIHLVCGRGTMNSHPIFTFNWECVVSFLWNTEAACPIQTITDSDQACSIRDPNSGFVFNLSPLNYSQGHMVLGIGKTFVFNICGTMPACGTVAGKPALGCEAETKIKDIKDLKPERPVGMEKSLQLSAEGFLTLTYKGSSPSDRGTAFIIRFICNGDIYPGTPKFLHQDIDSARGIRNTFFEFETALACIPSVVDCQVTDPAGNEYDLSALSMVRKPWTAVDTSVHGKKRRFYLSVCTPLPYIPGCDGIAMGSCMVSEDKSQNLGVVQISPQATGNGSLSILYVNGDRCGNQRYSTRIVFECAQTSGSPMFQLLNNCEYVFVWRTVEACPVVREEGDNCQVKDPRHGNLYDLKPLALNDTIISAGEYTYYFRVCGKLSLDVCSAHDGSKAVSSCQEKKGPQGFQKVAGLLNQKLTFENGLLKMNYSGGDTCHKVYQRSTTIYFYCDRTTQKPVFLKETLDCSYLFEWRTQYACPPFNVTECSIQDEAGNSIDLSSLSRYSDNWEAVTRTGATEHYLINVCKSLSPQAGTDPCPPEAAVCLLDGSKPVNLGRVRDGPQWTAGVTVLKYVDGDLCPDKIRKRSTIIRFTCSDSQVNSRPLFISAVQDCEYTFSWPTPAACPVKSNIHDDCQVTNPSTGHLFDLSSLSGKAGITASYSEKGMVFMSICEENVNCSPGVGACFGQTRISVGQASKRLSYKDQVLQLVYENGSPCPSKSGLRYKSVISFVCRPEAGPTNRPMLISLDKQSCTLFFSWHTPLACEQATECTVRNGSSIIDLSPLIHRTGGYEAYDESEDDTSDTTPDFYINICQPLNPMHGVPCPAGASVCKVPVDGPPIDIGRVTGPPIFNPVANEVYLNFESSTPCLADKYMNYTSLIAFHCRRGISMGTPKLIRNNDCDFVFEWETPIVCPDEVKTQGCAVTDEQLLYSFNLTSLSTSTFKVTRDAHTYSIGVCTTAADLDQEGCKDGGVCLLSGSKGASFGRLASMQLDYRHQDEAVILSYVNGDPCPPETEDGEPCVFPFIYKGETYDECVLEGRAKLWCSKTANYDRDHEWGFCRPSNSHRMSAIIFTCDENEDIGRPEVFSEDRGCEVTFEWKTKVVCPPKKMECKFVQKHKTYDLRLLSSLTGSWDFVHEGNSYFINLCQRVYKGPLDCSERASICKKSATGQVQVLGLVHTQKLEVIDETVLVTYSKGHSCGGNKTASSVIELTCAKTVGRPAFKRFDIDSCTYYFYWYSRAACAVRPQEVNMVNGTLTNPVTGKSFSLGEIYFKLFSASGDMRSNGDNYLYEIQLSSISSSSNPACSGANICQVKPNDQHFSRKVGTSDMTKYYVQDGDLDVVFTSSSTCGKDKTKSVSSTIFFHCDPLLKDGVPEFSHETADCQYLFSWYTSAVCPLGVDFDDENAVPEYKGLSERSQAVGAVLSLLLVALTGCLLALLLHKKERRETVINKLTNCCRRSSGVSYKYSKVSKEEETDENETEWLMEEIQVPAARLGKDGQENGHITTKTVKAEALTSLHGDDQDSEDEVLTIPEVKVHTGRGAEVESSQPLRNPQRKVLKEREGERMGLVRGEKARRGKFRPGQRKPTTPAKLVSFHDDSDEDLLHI
Method: as §1
Membrane protein extracted from fresh frozen brain tissue was used for competitive equilibrium and saturation binding assays. For total binding in equilibrium binding assays, duplicate samples were incubated in 100 μl reactions containing binding buffer (100 mM HEPES, pH 8.0, 118 mM NaCl, 1.2 mM MgSO4, 8.8 mM dextrose, 5 mM KCl, 1% bovine serum albumin) and 100 nCi/ml of [^125I] […] To measure total binding in saturation binding assays, samples from 8-12 brains per group were pooled in equal proportions, and duplicate samples were incubated in 100 μl reactions containing binding buffer and 0.0031 to 1 μCi/ml of [^125I] […] To detect non-specific binding in the equilibrium and saturation binding assays, duplicate reactions were incubated with the same concentrations of radiolabeled tracer plus 0.1 μM unlabeled (cold) competitive ligand. After 16 hours incubation at 4° C., bound radiolabeled tracer was precipitated with bovine gamma globulin and polyethylene glycol 8000. The precipitate (bound ligand) and supernatant (free ligand) fractions were counted in an LKB CompuGamma CS Gamma counter. Specific binding was calculated by subtracting fmols of non-specific binding, i.e. amount bound in the presence of excess cold ligand, from total fmols bound in the absence of unlabeled competitive ligand. GraphPad Prism 4 software (San Diego, Calif.) was used to calculate saturation binding (BMAX) and binding affinity (Kd) for each data set.

learning and memory = experiment: Morris Water Maze learning and memory test; conditions: for behavior, learning and memory during the training period: 4-week old rats; for mean latency period to arrive at the hidden platform relative to control: Trial Day 4 / final day of testing
Method: as §1
Morris Water Maze Behavioral Tests: A standard Morris Water Maze was used to measure learning (R. W. Hickey, M. Akino, S. Strausbaugh, G. M. De Courten-Myers. Use of the Morris water maze and acoustic startle chamber to evaluate neurologic injury after asphyxial arrest in rats. Pediatr Res 39(1) (1996), 77-84). On the first day of testing, the rats were oriented to the water maze and educated about the location of the platform. On the 3 subsequent days of testing, the platform was submerged just below the surface, and the rats were tested for their learning and memory of the platform location by measuring the latency period required to reach and recognize the platform. The rats were allowed 120 seconds to locate the platform, after which they were guided to it. After landing on the platform, the rats were allowed to orient themselves for 15 seconds prior to being rescued. The rats were tested three times each day, with 30 min. intervals between trials. The rats were placed in the same quadrant of the water maze for every trial, except for trials 2 and 3 on the final day testing, when the start locations were randomized to test mastery of platform memory.

SMILES	ChAT expression (brain gene expression; cerebellum)	Hu gene expression (brain gene expression; hypothalamus)	ic-STZ associated reductions in IGF-II expression (brain gene expression)	NOX 1 mRNA (brain gene expression; temporal lobe)	APP gene expression (brain gene expression)	BMAX, IGF-II receptor saturation binding in brains of treated rats (IGF-II receptor) [fmol/mg protein]	behavior, learning and memory during the training period (learning and memory)	mean latency period to arrive at the hidden platform relative to control (learning and memory)	APP mRNA relative to control and ic-STZ (brain gene expression)	AChE mRNA compared with ic-STZ treatment alone (brain gene expression; cerebellum)	AIF-1 (microglia) expression relative to ic-STZ group (brain gene expression; cerebellum)	GFAP (astrocytes) expression relative to ic-STZ group (brain gene expression; cerebellum)	Hu (neurons) expression relative to ic-STZ group (brain gene expression; cerebellum)	IGF-I mRNA relative to control (brain gene expression; cerebellum)	IGF-II receptor mRNA (brain gene expression; cerebellum)	AChE mRNA (brain gene expression; hypothalamus)	IGF-I receptor mRNA (brain gene expression; temporal lobe and cerebellum)	Tau gene expression (brain gene expression)	NOS 2 mRNA (brain gene expression; temporal lobe)	p53 mRNA (brain gene expression; temporal lobe)	further results
CC(C)(Sc1ccc(CCN(CCCCC2CCCCC2)C(=O)NC2CCCCC2)cc1)C(=O)O [PPAR-α agonist, GW7647]	significantly increased	significantly increased	variably prevented	significantly reduced	significantly reduced	7.291	delayed learning and impaired memory	significantly higher													MAG-1 gene expression (brain gene expression; hypothalamus): increased
CC(C)C[C@H](NC(=O)OCC1c2ccccc2-c2ccccc21)C(=O)O [PPAR-γ agonist, F-L-Leu]	significantly increased		variably prevented	significantly reduced	significantly reduced	9.223	delayed learning and impaired memory	significantly higher	significantly higher	significantly reduced	increased	decreased	increased	significantly increased	significantly increased	significantly increased	significantly increased	restored Tau gene expression to control levels			
CCCc1c(OCCCOc2ccc(OCC(=O)O)cc2)ccc(C(C)=O)c1O [PPAR-δ agonist, L-165,041]	significantly increased	significantly increased		comparable to control		20.22	no detectable abnormalities in behavior, learning, or memory	no significant difference	significantly higher	significantly reduced	increased	decreased	increased	significantly increased	significantly increased	significantly increased	significantly increased	restored Tau gene expression to control levels	comparable to control	comparable to control	IGF-II receptor binding (IGF-II receptor; cerebellum): significantly increased; BMAX for IGF-II receptor (in words) vs ic-STZ group (IGF-II receptor; rat, in vivo): increased
CN(N=O)C(=O)NC1C(O)OC(CO)C(O)C1O (stereo not shown) [STZ]				significantly increased		6.431										significantly increased			significantly increased	significantly increased	IGF-II receptor expression (brain gene expression; hypothalamus): did not significantly impair; IGF-I mRNA (brain gene expression; hypothalamus and cerebellum): not significantly reduced; IGF-I receptor expression (brain gene expression; hypothalamus and cerebellum): significantly reduced; AChE expression (brain gene expression; temporal lobe): significantly reduced; IGF-I receptor expression (brain gene expression; temporal lobe): did not significantly impair; NOS 3 mRNA (brain gene expression; temporal lobe): significantly increased; ChAT mRNA (brain gene expression; temporal lobe and cerebellum): significantly reduced; IGF-II receptor expression (brain gene expression; temporal lobe and cerebellum): significantly reduced; insulin receptor gene expression (brain gene expression; temporal lobe, hypothalamus, cerebellum): significantly reduced; binding to IGF-II receptors (IGF-II receptor; temporal lobe and cerebellum): reduced; mean latency period vs control (learning and memory; first 3 days of testing): approximately twice as long as control; mean latency vs control (learning and memory; fourth day): no significant differences; learning and memory in Morris Water Maze (learning and memory; rats surviving 4 weeks or longer, preliminary studies): striking impairments in learning and memory
